From patent publication US5563037A, “Homogeneous method for assay of double-stranded nucleic acids using fluorescent dyes and kit useful therein” (Johnson & Johnson Clinical Diagnostics, Inc., priority 1995, dated 1996) come the findings set out here.

Each structure is given as a SMILES string. Values joined by “and” are separate entries in the source; they are usually repeats but may differ in a detail not shown here. Equal values may be shown once.

In experiment [1] the test system is HIV-I DNA. The experiment in a line: Example 2: fluorescence of amplification products. The class given is biochemical. On the procedure: The method of this invention was compared to an amplification and detection method outside the scope of this invention, which was carried out using YOYO-1 (1 μmolar final concentration), a tetravalent fluorescent dye, in the buffered solution described above. This dye has the following structure: [drawing 4]
The PCR reaction mixture of Example 1 (except the DNA polymerase) was made to a volume of 5472 μl. The resulting mixture was aliquoted into tubes A, B and C (1824 μl each) representing Samples A, B and C, respectively.
The sample in Tube A was diluted with buffer (220 μl) and subjected to amplification without any fluorescence dye present. The dye was added at the end of amplification for quantitative detection of the resulting products.
In addition to the PCR reagents, the sample in Tube B contained YOYO-1 fluorescent dye (0.1 μmolar) which had been added prior to amplification (220 μl of a 10 μmolar solution).
The sample in Tube C also contained YO-PRO-1 fluorescent dye (0.1 μmolar) which had been added prior to amplification (220 μl of a 10 μmolar solution).
The DNA polymerase (88 μl) and target HIV-I DNA target nucleic acid (220 μl) were then added to each tube, and the contents of the each of the three tubes were used to fill the PCR reagent compartment of eight pouches.
Amplification was carried out using the same procedures as in Example 1. […]
The results of amplification were detected in three ways: (1) color dye scores visually evaluated as 0 (no signal) to 10 (highest signal density), (2) ethidium bromide stained electrophoretic gels, and (3) fluorescence measured on a commercially available Perkin Elmer fluorimeter.
Three replicate assays of each sample (A, B and C) were carried out using each detection means. The average result for each detection means was as follows:
Fluorescent signal was generated using a Perkin-Elmer LS-5B fluorimeter, at the following wavelengths for both dyes:
Each amplification product mixture was diluted 100× into a solution of each dye (1 μmolar final concentration). Background signals were obtained from a mixture of amplification reagent mixture and each dye.

Experiment [2] deals with HIV-I DNA. Nature of the experiment: Example 2: ethidium bromide stained electrophoretic gels of amplification products. The class given is biochemical. The note with it: dye added prior to amplification. On the procedure: The method of this invention was compared to an amplification and detection method outside the scope of this invention, which was carried out using YOYO-1 (1 μmolar final concentration), a tetravalent fluorescent dye, in the buffered solution described above. This dye has the following structure: [drawing 4] The PCR reaction mixture of Example 1 (except the DNA polymerase) was made to a volume of 5472 μl. The resulting mixture was aliquoted into tubes A, B and C (1824 μl each) representing Samples A, B and C, respectively. The sample in Tube A was diluted with buffer (220 μl) and subjected to amplification without any fluorescence dye present. The dye was added at the end of amplification for quantitative detection of the resulting products. In addition to the PCR reagents, the sample in Tube B contained YOYO-1 fluorescent dye (0.1 μmolar) which had been added prior to amplification (220 μl of a 10 μmolar solution). The sample in Tube C also contained YO-[…] fluorescent dye (0.1 μmolar) which had been added prior to amplification (220 μl of a 10 μmolar solution). The DNA polymerase (88 μl) and target HIV-I DNA target nucleic acid (220 μl) were then added to each tube, and the contents of the each of the three tubes were used to fill the PCR reagent compartment of eight pouches. Amplification was carried out using the same procedures as in Example 1. […] follows: The results of amplification were detected in three ways: (1) color dye scores visually evaluated as 0 (no signal) to 10 (highest signal density), (2) ethidium bromide stained electrophoretic gels, and (3) fluorescence measured on a commercially available Perkin Elmer fluorimeter. Electrophoresis was carried out using commercially available NuSieve 1.5%/Seakem Agarose 1% gels (modified to 2.5% agarose) and ethidium bromide stain. The samples were applied to the gels in conventional TBE buffer (4 μl/100 μl). Three replicate assays of each sample (A, B and C) were carried out using each detection means. The average result for each detection means was as follows: […]

Experiment [3] deals with double-stranded nucleic acids. The experiment in a line: Binding constant (Kb) of fluorescent dye with double-stranded nucleic acids. The note with it: Kp from Molecular Probes catalog divided by 55. The text has this: The fluorescent dyes useful herein are generally defined as unsymmetrical cyanine dyes having a binding constant (Kb) within the range of from about 1×104 to about 5×105 (molar^-1). As used to define Kb, "about" refers to a variance of 10%. The dyes are also water-soluble or water-dispersible so they can bind to the nucleic acids in the aqueous reaction mixture. Depending upon the anions used, the dyes may be dissolved in a water-miscible solvent.
Particularly useful fluorescent dyes are commercially available from Molecular Probes, Inc. having the trade names and Kp values listed in Table I below. However, this invention is not to be construed as limited to the particular Molecular Probes, Inc. dyes listed therein since these are but preferred dyes. The cations of these preferred dyes are also identified below by chemical structure. The compounds can include any suitable divalent anion, or two monovalent anions. Iodide is preferred. [drawing 3]
*The Kb values in the table were calculated by dividing the partitio
coefficient (Kp) reported in the Molecular Probes, Inc. catalog, page 224
by 55, the molarity of water.

In experiment [4] the test system is HIV-I DNA. Nature of the experiment: Example 3: fluorescence after amplification with dye; usefulness / PCR inhibition. The format is biochemical. On the procedure:
The primers used in Example 3 had the following sequences which are complementary to the gag region of HIV-I DNA: Amplification experiments like those of Example 2 were also carried out to evaluate the usefulness of several other conventional fluorescent dye stains. In these assays, primers identified above as SEQ ID NO:3 and SEQ ID NO:4 were used, as well as the probe identified as SEQ ID NO:6. […] Fluorescence was determined as described in Example 2 except that all amplified samples were mixed with a solution of YOYO-1 (0.1 μmolar) to provide a common minimum threshold of signal.

The Kd is the concentration at which binding is half-saturated.

As to `C[n+]1c(C=C2C=CN(CCC[N+](C)(C)C)c3ccccc32)oc2ccccc21` [Compound E], the “Fluorescence, dye added after amplification (Sample A)” value in the experiment on HIV-I DNA [1] (Sample A, dye added after amplification, replicates, 491/509 nm, listed as YO-PRO-1) is 3.6 Fluorescent Units and 3.7 Fluorescent Units and 3.4 Fluorescent Units and 3.0 Fluorescent Units. In addition, the Background fluorescence in the experiment with HIV-I DNA [1] (amplification reagent mixture and dye, excitation 491 nm, emission 509 nm) is listed as 0.03 Fluorescent Units. Also, the “effect of dye on amplification / overall signal” value in the experiment with HIV-I DNA [1] (comparison of the two dyes (fluorescence)) is recorded as “lower overall signal”. Besides, the “Fluorescence, dye present during amplification (Samples B, C)” value with HIV-I DNA [1] (dye added prior to amplification, replicates, 491/509 nm, listed as YO-PRO-1) was 3.7 Fluorescent Units and 3.5 Fluorescent Units and 3.6 Fluorescent Units and 3.2 Fluorescent Units and 2.8 Fluorescent Units. In the experiment with HIV-I DNA [1] (dye included in reagent mixture during amplification), the “signal and use of dye during amplification” value is reported as “can be included in the reagent mixture during amplification”. For the same compound, the “effect of dye on amplification (gel)” value in the experiment with HIV-I DNA [2] is reported as “allowed amplification to proceed”. For the same compound, the “Positive/negative Gel Bands” value in the experiment with HIV-I DNA [2] (40 cycles) is 5 Positives out of 5 bands. Further, the affinity in experiment [3], expressed as Kd, was 6.67 µM. Further, the “Fluorescent Signal” value in the experiment on HIV-I DNA [4] (amplified samples mixed with YOYO-1 (0.1 μmolar)) is reported as 16. In addition, the “usefulness of dye / inhibition of PCR” value with HIV-I DNA [4] (dye in amplification) is given as “useful”.
